Blank lines part the entries; values can stand above or below the compound they belong to.
Key:
[1] = system: Neurons from zebrafish embryos; assay: Neuronal tracing using a hydrazide-labeled fluorophore (microinjection); type: cell-based
Source text: Neurons from zebrafish embryos are microinjected with Compound 44, using standard methods as described by Blankenfeld et al. (J. NEUROSCI. METH. 36, 309 (1991)). […] The staining is fixable in the cells using formaldehyde and standard fixing methods.

[2] = Determination of the Ca2+ binding affinity (fluorescence titration, method of Tsien et al.)
Protocol: The fluorescence response and dissociation constant of Compound 58 is determined using the method described by Tsien et al. METH. ENZYM. 172, 230 (1989). Compound 58 (1 mg) is dissolved in deionized water and 5 µL of this solution is diluted into 3 mL of each of two buffers, which are cross diluted to arrive at a series of Ca^2+ concentrations between zero and 35 µM. Emission spectra of the dye solutions are scanned between dilutions to generate a family of curves. Each of these curves has maximal fluorescence emission at approximately 640 nm with an increase in fluorescence emission intensity with increasing Ca^2+ concentration. This intensity change is plotted against the concentration of free Ca^2+ to give a value for the dissociation constant of the indicator. The calculated dissociation constant at 20° C. is 57.5 μM.

[3] = Fluorescence quantum yield determination against sulforhodamine 101 reference; type: physicochemical; conditions: excited at 560 nm, triplicate
Protocol: The fluorescence quantum yield of Compound 41 is determined using sulforhodamine 101 (in ethyl alcohol) as the reference standard (φF=0.90). The concentrations of sulforhodamine 101 (the reference) and Compound 41 are adjusted to obtain an absorbance of 0.25 (in 1 cm cell) at 560 nm. The sample and reference are each excited at 560 nm and their fluorescence spectra obtained. The fluorescence quantum yield of the sample (φF^X) in the indicated solvent was calculated from the following formula, considering that the peak area (AR) of the emission spectrum of the reference and that of the tested dye (AX) can be readily determined: φF^X=AxφF^RAR where φF^R and φF^X are the fluorescence quantum yields of the reference and the testing dye. The measurements are done in triplicate and the estimated errors are no more than 1%. The quantum yields of Compound 41 are determined to be 0.72 (in methyl alcohol) and 0.68 (in water) respectively.

[4] = in ethyl alcohol; cited from earlier work
[5] = Fluorescence of selected protein conjugates; type: physicochemical; conditions: protein conjugates prepared with Compound 42 as in Example 47
Protocol: A series of dye conjugates of goat anti-mouse IgG, streptavidin and other proteins, including R-phycoerythrin (R-PE) are prepared by standard means (Haugland et al., METH. MOL. BIOL. 45, 205 (1995); Haugland, METH. MOL. BIOL. 45, 223 (1995); Haugland, METH. MOL. BIOL. 45, 235 (1995)) using Compound 42 and a succinimidyl ester derivative of CY-5 dye.
A solution of the desired protein is prepared at 10 mg/mL in 0.1 M sodium bicarbonate. The labeling reagents are dissolved in DMF at 10 mg/mL. Predetermined amounts of the labeling reagents are added to the protein solutions with stirring. A molar ratio of 10 equivalents of dye to 1 equivalent of protein is typical, though the optimal amount varies with the particular labeling reagent, the protein being labeled and the protein's concentration, and is determined empirically. The reaction mixture is incubated at room temperature for one hour, or on ice for several hours. The dye-protein conjugate is typically separated from free unreacted reagent by size-exclusion chromatography on BIO-RAD P-30 resin equilibrated with PBS. The initial, protein-containing colored band is collected and the degree of substitution is determined from the absorbance at the absorbance maximum of each fluorophore, using the extinction coefficient of the free fluorophore.

[6] = system: Mouse monocyte-macrophage, Abelson Leukemia Virus Transformed (RAW264.7) cells; assay: Discrimination of live and dead cells by flow cytometry; type: cell-based; conditions: heat-killed fraction (50° C., 20 minutes), 30 minutes on ice
Protocol: Selected dyes of the invention are highly polar, and therefore relatively impermeable to the membranes of live cells. These dyes can therefore be used to discriminate cells that have intact versus compromised cell membranes in a single-color assay as follows: Mouse monocyte-macrophage, Abelson Leukemia Virus Transformed (RAW264.7) cells are trypsinized and washed with phosphate buffered saline (PBS), pH 7.2. Approximately 8-10 million cells suspended in 180 μL of PBS, pH 7.2 are placed in a glass test tube and heated in a water bath at 50° C. for 20 minutes to kill a fraction of the cells. […] The mixture is incubated on ice for 30 minutes and washed twice with PBS, followed by addition of 200 μL of PBS, pH 7.2. An identical aliquot of cells is treated with 2 μL of a 150 μM solution of propidium iodide in water (as a control for dead cells).

Compound: CN1c2cc3c(cc2-c2sc(S(=O)(=O)O)cc2C1(C)C)C(c1c(F)c(SCC(=O)NN)cc(F)c1S(=O)(=O)[O-])=c1cc2c(cc1O3)=[N+](C)C(C)(C)c1cc(S(=O)(=O)O)sc1-2 [Compound 44]
filling and fluorescence of microinjected neurons [1]: neurons rapidly fill with the dye throughout their volume and their red fluorescence is readily observable

maximal fluorescence emission ([2]; Ca2+ buffer series, intensity increases with increasing Ca2+): approximately 640 nm
Kd ([2]; at 20° C., free Ca2+ between zero and 35 µM, read-out: dissociation constant (Ca2+)): 57.5 µM
Compound: Cc1ccc(N(CC(=O)O)CC(=O)O)c(OCCOc2cc(C3=c4cc5c(cc4Oc4cc6c(cc43)-c3sc4ccccc4c3C(C)(C)N6C)=[N+](C)C(C)(C)c3c-5sc4ccccc34)ccc2N(CC(=O)[O-])CC(=O)O)c1 [Compound 58]

fluorescence quantum yield ([3]; in methyl alcohol): 0.72
fluorescence quantum yield ([3]; in water): 0.68
Compound: CN1c2cc3c(cc2-c2sc(S(=O)(=O)O)cc2C1(C)C)C(c1c(F)c(SCC(=O)O)cc(F)c1S(=O)(=O)[O-])=c1cc2c(cc1O3)=[N+](C)C(C)(C)c1cc(S(=O)(=O)O)sc1-2 [Compound 41]

Compound: O=S(=O)([O-])c1cc(S(=O)(=O)O)ccc1C1=c2cc3c4c(c2Oc2c1cc1c5c2CCCN5CCC1)CCC[N+]=4CCC3 [sulforhodamine 101]
fluorescence quantum yield of reference standard (φF) [4]: 0.90

Compound: Wheat Germ Agglutinin
Quantum Yield [5]: 0.56

Compound: CN1c2cc3c(cc2-c2sc(S(=O)(=O)O)cc2C1(C)C)C(c1c(F)c(SCC(=O)ON2C(=O)CCC2=O)cc(F)c1S(=O)(=O)[O-])=c1cc2c(cc1O3)=[N+](C)C(C)(C)c1cc(S(=O)(=O)O)sc1-2 [Compound 42]
dead cell populations stained, compared with propidium iodide [6]: very similar

Reference: US7816519B2, “Derivatives of 1,2-dihydro-7-hydroxyquinolines containing fused rings” (Life Technologies Corporation, priority 2000, dated 2010)
